Measurements: patent US8188148B2, “Substituted 1,3-diphenylpropane derivatives, preparations and uses thereof” (Genfit, priority 2006, dated 2012)

How the values were obtained:
ApoE2/E2 mouse = test: In vivo evaluation on ApoE2/E2 mouse: body weight and plasma lipids; details: E2/E2 mouse, 5, 10, and 50 mpk per os, 8 days, vs control
Procedure: The dyslipidemic E2/E2 mouse's body weight, rates of total cholesterol, triglycerides and of plasma free fatty acids are measured after 8 days of a per os treatment with the compounds according to the invention.
The murine model used is the ApoE2/E2 mouse, a transgenic mouse having the human apolipoprotein E isoform E2 (Sullivan P M et al., 1998). In human, this apolipoprotein, a constituent of low and very low density lipoproteins (LDL-VLDL), is present in three isoforms E2, E3, and E4. The E2 form presents a mutation affecting the amino acid of position 158, which considerably weakens the affinity of this protein for the receptors to LDL receptors. Accordingly, the VLDL clearance is nearly non-existent. An accumulation of low-density lipoproteins then occurs along with a mixed hyperlipidemia known as of type III (high cholesterol and triglycerides rates).
The ApoE2/E2 transgenic mice were kept on a 12 hour/12 hour light/dark cycle at a constant temperature of 20±3° C. After a one week acclimatization period, the mice were weighed and divided into groups of 6 animals selected so as to render uniform the distribution of their body weights and plasma lipid rates, determined before the experiment. The tested compounds were suspended in carboxymethylcellulose (Sigma C4888) and administered by intra-gastric tube feeding, once a day for 8 days at the chosen dosage. The animals had free access to food and water (standard diet). Taking of food and weight gain are recorded throughout the experiment. At the end of the experiment, the animals were anesthetized after a 4 hour fast, a blood sample was taken using (EDTA) anticoagulant, then the mice were weighed and euthanized. The plasma was prepared by centrifugation at 3000 rotations/minute for 20 minutes. The samples were kept at +4° C.
Plasma lipid concentrations (total cholesterol and triglycerides) are measured by enzymatic dosages (bioMérieux-Lyon-France) according to the provider's recommendations.
Plasma cholesterol and triglycerides rates are measured after 8 days of a per os treatment with the compounds according to the invention. These rates are compared with those obtained with control animals (not treated with compounds according to the invention).
Low-density lipoproteins (VLDL and LDL) are precipitated by Phosphotungstate. The precipitate is eliminated by centrifugation. HDL cholesterol present in the supernatant is measured by enzymatic dosages (bioMérieux-Lyon-France) in accordance with the provider's recommendations.

db/db mouse = test: In vivo evaluation on db/db mouse: body weight, glycemia, insulinemia, plasma lipids; details: 50 mpk per os, 28 days
Procedure: The effect of the compounds according to the invention is evaluated in vivo on the db/db mouse by measuring the body weight evolution, the glucose levels, the insulin levels, the plasma total cholesterol and triglyceride levels, and by analyzing the distribution of cholesterol in different plasma lipoprotein fractions, after 28 days of a per os treatment with compounds according to the invention.
Female db/db mice were kept on a 12 hour/12 hour light/dark cycle at a constant temperature of 20±3° C. After a one week acclimatization period, the mice were weighed and divided into groups of 8 animals selected so as to render uniform the distribution of their body weights and their plasma lipid rates, determined before the experiment. The tested compounds were suspended in carboxymethylcellulose (Sigma C4888) and administered intra-gastric tube feeding once a day for 28 days at the chosen dose. The animals had free access to food and water (standard diet). Taking of food and weight gain are recorded throughout the experiment. At the end of the experiment, the animals were anesthetized after a 4 hour fast, a blood sample was taken using (EDTA) anticoagulant, then the mice were weighed and euthanized. The plasma was separated by centrifugation at 3000 rotations/minute for 20 minutes. The samples were kept at +4° C. The hepatic tissue and skeletal muscle tissue samples were taken and frozen immediately in liquid nitrogen then conserved at −80° C. for later analysis.
Murine plasma glucose is measured out according to an enzyme-colorimetric method using a Glucose RTU kit (Biomérieux). Glucose is transformed into gluconic acid under the action of glucose oxidase; the reaction releases hydrogen peroxide. Hydrogen peroxide is measured according to the Trinder reaction which, under the action of a peroxidase and in the presence of phenol and amino-4-antipyrine, produces water and a colored product, quinoneimine. The color intensity, due to the quinoneimine, is proportional to the amount of glucose present in the sample.
Murine insulin is measured using ELISA method (using the INSKR020 kit from provider Crystal chem.). A microplate is coated with a mouse anti-insulin antibody. Then, the serum to be assayed for insulin is placed onto the plate. A guinea pig anti-insulin antibody is used to recognize the complex formed by the mouse insulin and the anti-insulin monoclonal antibody. Finally an anti-guinea pig antibody labeled with peroxidase is added and bind to the guinea pig anti-insulin antibody. The colorimetric reaction is performed by adding an OPD (ortho phenyl diamine) enzyme substrate. The intensity of the color is proportional to the amount of insulin present in the sample.
Plasma lipid concentrations (total cholesterol and triglycerides) are measured by enzymatic assays (bioMérieux-Lyon-France) according to the provider's recommendations.
The different lipid fractions (VLDL, LDL, HDL) in the plasma were separated using gel-filtration chromatography. Cholesterol concentrations were then measured for each fraction by enzymatic assays (bioMérieux-Lyon-France) according to the provider's recommendations.

For `Cc1cc(CCC(=O)c2ccc(OC(F)(F)F)cc2)cc(C)c1OC(C)(C)C(=O)O` [Compound 1, 2-[2,6-dimethyl-4-[3-[4-(trifluoromethyloxy)phenyl]-3-oxo-propyl]phenoxy]-2-methyl-propanoic acid], the body weight gain (ApoE2/E2 mouse) was “weight loss”, the “plasma HDL-cholesterol” value (ApoE2/E2 mouse) was “significantly increased” and the “plasma free fatty acids” value (ApoE2/E2 mouse) was “decreased very significantly”. The plasma total cholesterol (ApoE2/E2 mouse) was “significantly reduced”, the plasma triglycerides (ApoE2/E2 mouse) was “decreased very significantly” and the “HDL-cholesterol fraction (distribution of cholesterol in plasma lipoprotein fractions)” value (db/db mouse) was “significant increase”. For the same compound, the “glycemia (plasma glucose)” value (db/db mouse) was “significantly reduced”, the “insulinemia (plasma insulin)” value (db/db mouse) was “significantly reduced” and the body weight gain (db/db mouse; vs control) was “weight loss”. The “plasma free fatty acids” value (db/db mouse; vs control) was “very significantly decreased”, the plasma triglycerides (db/db mouse; vs control) was “very significantly decreased” and the total plasma cholesterol (db/db mouse; vs control) was “significantly increased”.
